Source: patent US20060063759A1, “Tricyclic steroid hormone nuclear receptor modulators” (priority 2002, published 2006)

Tests used:
[1] = target: T1, glucocorticoid receptor (Homo sapiens, UniProt P04150); test: Glucocorticoid Receptor Binding Assay ([3H]-dexamethasone, A549 cell extract); conditions: [3H]-dexamethasone binding, read-out: GR Ki
T1 construct: containing 50-200 ug of A549 cell extract and 1.86 nM [^3H]-dexamethasone; host or cells: A549 human lung epithelial cells (sonicated cell extract)
T1 sequence (P04150 1-777): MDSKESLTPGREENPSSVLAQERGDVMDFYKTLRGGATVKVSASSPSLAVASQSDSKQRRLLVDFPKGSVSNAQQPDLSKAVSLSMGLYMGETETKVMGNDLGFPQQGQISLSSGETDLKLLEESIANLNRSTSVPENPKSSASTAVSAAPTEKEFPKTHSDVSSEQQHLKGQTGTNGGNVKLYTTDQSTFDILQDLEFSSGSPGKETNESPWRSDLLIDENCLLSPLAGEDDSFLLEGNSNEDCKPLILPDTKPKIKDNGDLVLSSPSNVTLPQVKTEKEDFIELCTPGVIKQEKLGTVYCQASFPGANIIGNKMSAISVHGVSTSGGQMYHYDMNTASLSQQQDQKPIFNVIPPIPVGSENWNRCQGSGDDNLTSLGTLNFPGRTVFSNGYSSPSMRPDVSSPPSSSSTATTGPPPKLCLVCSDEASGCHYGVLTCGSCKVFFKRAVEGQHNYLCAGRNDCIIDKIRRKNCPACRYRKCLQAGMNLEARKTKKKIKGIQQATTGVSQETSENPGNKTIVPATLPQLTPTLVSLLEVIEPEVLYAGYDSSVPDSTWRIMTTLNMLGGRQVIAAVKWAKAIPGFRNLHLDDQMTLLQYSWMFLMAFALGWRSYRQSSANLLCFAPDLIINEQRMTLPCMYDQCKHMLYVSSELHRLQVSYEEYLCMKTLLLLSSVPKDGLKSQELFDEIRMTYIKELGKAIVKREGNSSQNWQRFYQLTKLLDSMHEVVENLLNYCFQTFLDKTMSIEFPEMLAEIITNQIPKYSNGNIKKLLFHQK
In short: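 A549 cell extract (50–200 ug) incubated with 1.86 nM [3H]-dexamethasone and test compound for 16 h at 4 °C in Tris-HCl pH 7.2 buffer with glycerol and molybdate. Unbound radioligand removed by dextran-coated charcoal, then supernatant bound counts measured by scintillation.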

[2] = target: T2, human MR (Homo sapiens, UniProt P08235); test: Mineralocorticoid Receptor Binding Assay ([3H]-aldosterone); conditions: [3H]-aldosterone binding, human MR expressed in Sf9 cells; read-out: MR Ki
T2 construct: The full length human MR gene is cloned from a human kidney or human brain cDNA library; His tag from the pAcHLT vector (own knowledge); made in house; host or cells: Sf9 insect cells (baculovirus, pAcHLT transfer vector)
T2 sequence (P08235 1-984): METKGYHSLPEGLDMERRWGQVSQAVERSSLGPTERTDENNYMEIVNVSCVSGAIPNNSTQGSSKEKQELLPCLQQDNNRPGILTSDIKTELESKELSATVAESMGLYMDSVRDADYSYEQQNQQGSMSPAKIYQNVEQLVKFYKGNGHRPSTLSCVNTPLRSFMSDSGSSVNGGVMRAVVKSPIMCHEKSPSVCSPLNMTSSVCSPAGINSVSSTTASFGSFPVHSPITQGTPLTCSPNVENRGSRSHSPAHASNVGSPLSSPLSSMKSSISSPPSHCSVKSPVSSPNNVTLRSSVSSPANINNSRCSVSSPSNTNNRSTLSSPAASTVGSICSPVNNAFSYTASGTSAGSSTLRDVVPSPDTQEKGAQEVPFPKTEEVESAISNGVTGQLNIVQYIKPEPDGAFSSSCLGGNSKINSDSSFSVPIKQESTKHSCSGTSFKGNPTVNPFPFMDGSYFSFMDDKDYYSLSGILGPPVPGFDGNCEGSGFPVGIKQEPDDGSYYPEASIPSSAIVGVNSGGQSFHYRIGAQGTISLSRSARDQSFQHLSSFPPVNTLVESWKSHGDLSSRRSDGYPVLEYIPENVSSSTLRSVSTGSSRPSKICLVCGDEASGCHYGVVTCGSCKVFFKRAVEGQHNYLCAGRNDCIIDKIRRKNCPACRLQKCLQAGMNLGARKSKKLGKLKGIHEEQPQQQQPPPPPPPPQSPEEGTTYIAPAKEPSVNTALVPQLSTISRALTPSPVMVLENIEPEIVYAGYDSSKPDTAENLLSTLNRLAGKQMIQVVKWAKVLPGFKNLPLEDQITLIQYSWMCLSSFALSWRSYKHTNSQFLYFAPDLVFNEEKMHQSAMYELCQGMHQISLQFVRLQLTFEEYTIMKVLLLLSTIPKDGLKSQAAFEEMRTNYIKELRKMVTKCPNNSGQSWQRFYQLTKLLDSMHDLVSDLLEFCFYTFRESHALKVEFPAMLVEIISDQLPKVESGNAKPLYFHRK
In short: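 Lysate supernatant of Sf9 cells expressing full-length human MR (20-25 μg protein) was incubated with 0.5 nM [3H]-aldosterone and test compound in molybdate/Tris/phosphate/glycerol buffer, pH 7.5, ~16 h at 4 °C. Bound ligand was filtered and counted by scintillation; IC50 is the concentration halving [3H]-aldosterone binding.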

Row | SMILES | Ki [1] [nM] | Ki [2] [nM]
1 | OCc1cccc(C=C2c3ccccc3CCc3ccccc32)c1 [Example 75, [3-(10,11-Dihydro-dibenzo[a,d]cyclohepten-5-ylidenemethyl)-phenyl]-methanol] | < 500 | < 500
2 | C(=C1c2ccccc2CCc2ccccc21)c1ccccc1-c1cnccn1 [Example 225, 2-[2-(10,11-Dihydro-dibenzo[a,d]cyclohepten-5-ylidenemethyl)-phenyl]-pyrazine] | < 10000 | < 500
3 | C/C(=C1\c2ccc(C)cc2CCc2cc(F)ccc21)c1cccc(NS(C)(=O)=O)c1 [Example 831] | < 500 | < 500
4 | CS(=O)(=O)Nc1cccc(/C=C2\c3ccccc3CCc3ccncc32)c1 [Example 515] | < 10000 | < 500
5 | CN(C)c1ccccc1C=C1c2ccccc2CCc2ccccc21 [Example 121, [2-(10,11-Dihydro-dibenzo[a,d]cyclohepten-5-ylidenemethyl)-phenyl]-dimethyl-amine] | < 10000 | < 500
6 | C/C(=C1/c2ccccc2COc2cc(F)ccc21)c1cccc(NS(C)(=O)=O)c1 [Example 807] | < 500 | < 500
7 | CN(C)S(=O)(=O)c1ccccc1C=C1c2ccccc2CCc2ccccc21 [Example 5, 2-(10,11-Dihydro-dibenzo[a,d]cyclohepten-5-ylidenemethyl)-N,N-dimethyl-benzenesulfonamide] | < 500 | < 500
8 | O=C(Nc1cccc(C=C2c3ccccc3CCc3cc(Cl)ccc32)c1)C(F)(F)F [Example 400] | < 500 | < 500
9 | Cc1ccccc1CC1c2ccccc2CCc2ccccc21 [Example 131, 5-(2-Methyl-benzyl)-10,11-dihydro-5H-dibenzo[a,d]cycloheptene] | < 10000 | < 500
10 | CC/C(=C1\c2ccccc2CCc2cc(C)ccc21)c1cccc(NS(C)(=O)=O)c1 [Example 779] | < 500 | < 500
11 | CS(=O)(=O)Nc1cccc(/C=C2/c3ccc(Cl)cc3COc3ccccc32)c1 [Example 726] | < 500 | < 500
12 | O=c1[nH]c2ccc(C=C3c4ccccc4CCc4cc(F)cc(F)c43)cc2[nH]1 [Example 463] | < 10000 | < 500
13 | CN(c1cccc(C=C2c3ccccc3CCc3cc(Cl)ccc32)c1)S(C)(=O)=O [Example 398] | < 500 | < 500
14 | CN1C(=O)c2ccccc2C(=Cc2cccc(NS(C)(=O)=O)c2)c2ccccc21 [Example 652] | < 10000 | < 500
15 | CCC(=C1c2ccccc2CCc2ccccc21)c1cccc(N)c1 [Example 760] | < 10000 | < 500
16 | CS(=O)(=O)Nc1cccc(C[C@H]2c3ccccc3CCc3cc(F)ccc32)c1 [Example 383] | < 500 | < 500
17 | CC(=C1c2ccc(F)cc2CCc2cc(F)ccc21)c1cccc(NS(C)(=O)=O)c1 [Example 775] | < 500 | < 500
18 | Fc1ccc(/C=C2/c3ccc(F)cc3CCc3ncccc32)cc1 [Example 581] | < 10000 | < 500
19 | O=c1[nH]c2cc(/C=C3\c4ccc(F)cc4CCc4ncccc43)ccc2n1C1CC1 [Example 593] | < 10000 | < 500
20 | CS(=O)(=O)Nc1cccc(C=C2c3ccccc3CCc3c(F)cccc32)c1 [184(a), N-[3-(1-Fluoro-10,11-dihydro-dibenzo[a,d]cyclohepten-5-ylidenemethyl)-phenyl]-methanesulfonamide] | < 500 | < 500
21 | CS(=O)(=O)NCc1ccc(/C=C2/c3ccccc3CCc3cc(Cl)ccc32)cc1 [Example 345] | < 10000 | < 500
22 | CCCCS(=O)(=O)Nc1ccc(C=C2c3ccccc3CCc3ccccc32)cc1 [Example 109, Butane-1-sulfonic acid [4-(10,11-dihydro-dibenzo[a,d]cyclohepten-5-ylidenemethyl)-phenyl]-amide] | < 500 | < 500
